The subject of one data set is HBV. Description: Anti-HBV activity in vitro in HepG2.2.15 cells (extracellular HBV DNA by qPCR). To be noted: Hepatitis B virus; HepG2.2.15 cells; in-house data; read-out: EC50. The format is cell-based, Hepatitis B virus. From the text:
HepG2.2.15 and HepDE19 are stably-transfected cell lines containing the HBV genome. Both cell lines are derived from the hepatoblastoma cell line Hep G2 (American Type Culture Collection, ATCC® HB-8065™) by the published procedures described in references: MA Selles et al. Proc. Natl. Acad. Sci. USA 1987, 84, 1005-1009 and H Guo et al. Journal of Virology 2007, 81, 12472-12484, respectively. Both cell lines were maintained in Dulbecco's modified Eagle's medium (DMEM)-F12 medium supplemented with 10% fetal bovine serum, 100 U/mL penicillin, 100 μg/mL streptomycin, and 0.5 mg/mL of G418.
While HepG2.2.15 cells constitutively support HBV replication and production of virus particles, HepDE19 cells are inducible by tetracycline. Addition of 1 μg/mL tetracycline in culture medium suppresses HBV replication in HepDE19 cells, whereas switching to tetracycline-free medium resumes this process.
HepG2.2.15 cells were seeded into 96-well plates (3×10^4 cells in 100 μl media per well) and incubated overnight at 37° C. The test compounds were serially half-log diluted in DMSO, then diluted 100 times in culture media. 100 μL diluted compounds were added into the plates to reach 0.5% final concentration of DMSO in every well. Five days after compound treatment, culture supernatant was collected for further analysis.
For quantitative PCR detection of extracellular HBV DNA, 100 μL culture supernatant was collected and processed in MagNA Pure 96 Nucleic Acid Purification System (Roche Applied Science) for viral DNA extraction. The extracted samples were subjected to HBV DNA quantification by qPCR.
The compounds of the present invention were tested for their capacity to inhibit a HBV activity and activation as described herein.

A short description of data set [1]: Lyophilisation solubility assay (Lysa). The format is physicochemical. As to conditions: phosphate buffer, pH 6.5, aqueous buffer, thermodynamic from solid. The procedure: The aqueous solubility is an important physico-chemical property that plays a significant role in various physical and biological processes. It is desirable to have good solubility which enables good permeability and gastric and intestinal absorption, linear dose proportionality, less PK variability, and easy formulation for PD/PK studies. […] Lyophilisation solubility assay (Lysa) is a well adopted high throughput assay to measure compound solubility in industry.
Samples are prepared in duplicate from 10 mM DMSO stock solutions. After evaporation of DMSO with a centrifugal vacuum evaporator, the residue is solved in 0.05 M phosphate buffer (pH 6.5), stirred for one hour and shaken for two hours. After one night, the solutions is filtered using a microtiter filter plate and the filtrate and its 1/10 dilution are then analyzed by direct UV measurement or by HPLC-UV. […] The results are in μg/mL.

The nature of data set [2]: Metabolic stability study in human microsome. The data set is classed as in vitro ADME. The procedure: Human Microsomes were preincubated with test compound for 10 min at 37° C. in 100 mM phosphate buffer, pH 7.4. The reactions were initiated by adding NADPH or NADPH regenerating system to give a final incubation volume of 400 μL. For NADPH system, the final incubations contained 1 μM test compound, 0.5 mg/mL liver microsomal protein, 1 mM NADPH in 100 mM phosphate buffer, pH 7.4. For the NADPH regenerating system, the final incubations contained 1 μM test compound, 0.5 mg/mL liver microsomal protein, 3 mM glucose 6-phosphate, 1 mM NADP, 3 mM MgCl2 and 0.05 mg/mL glucose 6-phosphate dehydrogenase in 100 mM phosphate buffer, pH 7.4. After incubation times of 0, 3, 6, 9, 15 and 30 minutes at 37° C., 50 μL samples was removed and transferred to 150 μL methanol solution which was maintained at 4° C. containing 2 μM tolbutamide (internal standard) to terminating the reaction. Following precipitation and centrifugation, the amount of compound remaining in the samples were determined by LC-MS/MS. Controls of no NADPH or NADPH regenerating system at zero and 30 min were also prepared and analyzed.

Converted amounts (≈) assume the structure as drawn.

For the compound `CCOC(=O)C1=C(CN2CC(F)(F)C[C@H]2C(=O)O)NC(c2nccs2)=NC1c1ccc(F)c(F)c1Cl` (stereo in doubt) [Example 55, (R)-6-((S)-2-Carboxy-4,4-difluoro-pyrrolidin-1-ylmethyl)-4-(2-chloro-3,4-difluoro-phenyl)-2-thiazol-2-yl-1,4-dihydro-pyrimidine-5-carboxylic acid ethyl ester], the EC50 in the data set with HBV was found to be 1 nM. In data set [1], this compound showed a solubility (thermodynamic) of more than 670 µg/mL.
`COC(=O)C1=C(CN2CCSCC2C(=O)O)NC(c2nccs2)=N[C@H]1c1ccc(F)cc1Cl` (stereo in doubt) [Example 91, (3S)-4-[[(4R)-4-(2-Chloro-4-fluoro-phenyl)-5-methoxycarbonyl-2-thiazol-2-yl-1,4-dihydropyrimidin-6-yl]methyl]thiomorpholine-3-carboxylic acid]: the EC50 with HBV worked out at 38 nM. Moreover, the solubility (thermodynamic) in data set [1] was 584 µg/mL (≈ 1140 µM). Further, in data set [2], the “Human Hepatic Clearance” value is listed as 1.62 mL/min/kg.
For the compound `COC(=O)C1=C(CN2CCOC[C@H]2C(=O)O)NC(c2nc(C)cn2C)=NC1c1ccc(F)cc1Cl` (stereo in doubt) [Example 92, (S)-4-[(S)-6-(2-Chloro-4-fluoro-phenyl)-2-(1,4-dimethyl-1H-imidazol-2-yl)-5-methoxycarbonyl-3,6-dihydro-pyrimidin-4-ylmethyl]-morpholine-3-carboxylic acid], in the data set with HBV, the EC50 came to 14 nM. The compound further had a thermodynamic solubility in data set [1] of more than 602 µg/mL. The “Human Hepatic Clearance” value in data set [2] is recorded as 1.26 mL/min/kg.
On to `COC(=O)C1=C(CN2CC(F)(F)C[C@H]2C(=O)O)NC(c2ncc(F)cc2F)=N[C@H]1c1ccc(F)cc1Cl` [Example 4, (R)-6-((S)-2-Carboxy-4,4-difluoro-pyrrolidin-1-ylmethyl)-4-(2-chloro-4-fluoro-phenyl)-2-(3,5-difluoro-pyridin-2-yl)-1,4-dihydro-pyrimidine-5-carboxylic acid methyl ester], for which the concentration giving a half-maximal response (EC50) in the data set with HBV is 1.5 nM. In data set [1], this compound yielded a thermodynamic solubility of more than 700 µg/mL. For the same compound, the “Human Hepatic Clearance” value in data set [2] is given as 5.11 mL/min/kg.
The matching figures for `COC(=O)C1=C(CN2C[C@H](C(=O)O)CC(F)(F)C2)NC(c2nccs2)=N[C@H]1c1ccc(F)cc1Cl` [Example 14, (R)-6-((R)-5-Carboxy-3,3-difluoro-piperidin-1-ylmethyl)-4-(2-chloro-4-fluoro-phenyl)-2-thiazol-2-yl-1,4-dihydro-pyrimidine-5-carboxylic acid methyl ester]: 41 nM, more than 644 µg/mL and 1.41 mL/min/kg.
In the case of `COC(=O)C1=C(CN2CC(F)(F)C[C@H]2C(=O)O)NC(c2cc(Cl)cs2)=N[C@H]1c1ccc(F)cc1Cl` [Example 23, (R)-6-((S)-2-Carboxy-4,4-difluoro-pyrrolidin-1-ylmethyl)-4-(2-chloro-4-fluoro-phenyl)-2-(4-chloro-thiophen-2-yl)-1,4-dihydro-pyrimidine-5-carboxylic acid methyl ester], the EC50 with HBV is 25 nM. The compound further displayed a solubility (thermodynamic) in data set [1] of 172 µg/mL (≈ 314 µM). The “Human Hepatic Clearance” value in data set [2] turned out to be 8.8 mL/min/kg.
The matching figures for `COC(=O)C1=C(CN2CC(F)(F)C[C@H]2C(=O)O)NC(c2ncccc2C)=N[C@H]1c1ccc(F)cc1Cl` [Example 24, (R)-6-((S)-2-Carboxy-4,4-difluoro-pyrrolidin-1-ylmethyl)-4-(2-chloro-4-fluoro-phenyl)-2-(3-methyl-pyridin-2-yl)-1,4-dihydro-pyrimidine-5-carboxylic acid methyl ester]: 26 nM, 656 µg/mL (≈ 1250 µM) and 3.19 mL/min/kg.
As for `COC(=O)C1=C(CN2CC(F)(F)C[C@H]2C(=O)O)NC(c2nccs2)=N[C@H]1c1ccc(Br)cc1Cl` [Example 29, (R)-4-(4-Bromo-2-chloro-phenyl)-6-((S)-2-carboxy-4,4-difluoro-pyrrolidin-1-ylmethyl)-2-thiazol-2-yl-1,4-dihydro-pyrimidine-5-carboxylic acid methyl ester], in the data set on HBV, the EC50 came to 28 nM. Also, the solubility (thermodynamic) in data set [1] came out at 420 µg/mL (≈ 729 µM). For the same compound, the “Human Hepatic Clearance” value in data set [2] stood at 7.65 mL/min/kg.
Turning to `COC(=O)C1=C(CN2CC(F)(F)C[C@H]2C(=O)O)NC(c2ccc(F)cc2F)=N[C@H]1c1ccc(F)cc1Cl` [Example 33, (R)-6-((S)-2-Carboxy-4,4-difluoro-pyrrolidin-1-ylmethyl)-4-(2-chloro-4-fluoro-phenyl)-2-(2,4-difluoro-phenyl)-1,4-dihydro-pyrimidine-5-carboxylic acid methyl ester], the EC50 in the data set on HBV worked out at 23 nM. In addition, the “Human Hepatic Clearance” value in data set [2] is reported as 4.15 mL/min/kg.
Turning to `COC(=O)C1=C(CN2CC(F)(F)C[C@H]2C(=O)O)NC(c2nc(SC)cs2)=N[C@H]1c1ccc(F)cc1Cl` [Example 62, (2S)-1-[[(4R)-4-(2-Chloro-4-fluorophenyl)-5-methoxycarbonyl-2-(4-methylsulfanyl-1,3-thiazol-2-yl)-1,4-dihydropyrimidin-6-yl]methyl]-4,4-difluoropyrrolidine-2-carboxylic acid], in the data set with HBV, the half-maximal effective concentration (EC50) is 14 nM. For the same compound, the “Human Hepatic Clearance” value in data set [2] was determined as 9.06 mL/min/kg.
In turn, `COC(=O)C1=C(CN2CC(F)(F)C[C@H]2C(=O)O)NC(c2nccs2)=N[C@H]1c1ccc(Cl)cc1F` [Example 76, (R)-6-((S)-2-Carboxy-4,4-difluoro-pyrrolidin-1-ylmethyl)-4-(4-chloro-2-fluoro-phenyl)-2-thiazol-2-yl-1,4-dihydro-pyrimidine-5-carboxylic acid methyl ester] returned a thermodynamic solubility in data set [1] of more than 630 µg/mL. Further, in data set [2], the “Human Hepatic Clearance” value amounted to 1.72 mL/min/kg.
`COC(=O)C1=C(CN2CSCCC2C(=O)O)NC(c2nccs2)=N[C@H]1c1ccc(F)cc1Cl` (stereo partly drawn) [Example 86, 3-[[(4R)-4-(2-Chloro-4-fluoro-phenyl)-5-methoxycarbonyl-2-thiazol-2-yl-1,4-dihydropyrimidin-6-yl]methyl]-1,3-thiazinane-4-carboxylic acid] displayed a solubility (thermodynamic) in data set [1] of more than 596 µg/mL. Moreover, the “Human Hepatic Clearance” value in data set [2] came out at 6.8 mL/min/kg.
For `COC(=O)C1=C(CN2CCOC[C@H]2C(=O)O)NC(c2nc(C(F)F)cs2)=N[C@H]1c1ccc(F)cc1Cl` [Example 88, (3S)-4-[[(4R)-4-(2-Chloro-4-fluoro-phenyl)-2-[4-(difluoromethyl)thiazol-2-yl]-5-methoxycarbonyl-1,4-dihydropyrimidin-6-yl]methyl]morpholine-3-carboxylic acid], the thermodynamic solubility in data set [1] is more than 665 µg/mL. Further, in data set [2], the “Human Hepatic Clearance” value came out at 6.46 mL/min/kg.
Regarding `COC(=O)C1=C(CN2CC(F)(F)C(C)(C)[C@H]2C(=O)O)NC(c2nccs2)=N[C@H]1c1ccc(F)cc1Cl` [Example 89, (R)-6-((S)-2-Carboxy-4,4-difluoro-3,3-dimethyl-pyrrolidin-1-ylmethyl)-4-(2-chloro-4-fluoro-phenyl)-2-thiazol-2-yl-1,4-dihydro-pyrimidine-5-carboxylic acid methyl ester], in data set [1], the solubility (thermodynamic) was more than 525 µg/mL. Moreover, the “Human Hepatic Clearance” value in data set [2] turned out to be 6.13 mL/min/kg.
The corresponding values for `COC(=O)C1=C(CN2CCSC(C)(C)[C@H]2C(=O)O)NC(c2nccs2)=N[C@H]1c1ccc(F)cc1Cl` [Example 90, (3R)-4-[[(4R)-4-(2-Chloro-4-fluoro-phenyl)-5-methoxycarbonyl-2-thiazol-2-yl-1,4-dihydropyrimidin-6-yl]methyl]-2,2-dimethyl-thiomorpholine-3-carboxylic acid] are more than 610 µg/mL and 5.52 mL/min/kg.
